Measurements as given in DBAASP.
In brackets after ≈: the same amount, converted by molar mass. Values belong to the compound of their own block, whether it stands above or below them.

Assays:
Assay in all cases: ≥ marks a high value that may be exact or a test limit, other limits are often not marked, values filed in µg/mL are converted to µM
[1] = system: Bacillus subtilis DELTA
[2] = system: Candida parapsilosis
[3] = system: Escherichia coli DH5alpha
[4] = system: Pseudomonas aeruginosa PAO1
[5] = system: Zymomonas mobilis ATCC 10988
[6] = system: Candida albicans ATCC 10231
[7] = system: Candida glabrata ATCC 2001
[8] = system: Candida krusei ATCC 6258
[9] = system: Candida parapsilosis ATCC 90018
[10] = system: Candida tropicalis ATCC 750
[11] = system: Escherichia coli ATCC 25922
[12] = system: Pseudomonas aeruginosa ATCC 27853
[13] = system: Staphylococcus aureus ATCC 29213
[14] = system: Bacillus subtilis ATCC 6633
[15] = system: Candida albicans ATCC 36232
[16] = system: Escherichia coli KCTC 2433
[17] = system: Klebsiella pneumoniae ATCC 10031
[18] = system: Micrococcus luteus ATCC 4698
[19] = system: Proteus mirabilis ATCC 25933
[20] = system: Pseudomonas aeruginosa ATCC 9027
[21] = system: Shigella dysenteriae ATCC 9752
[22] = system: Staphylococcus aureus ATCC 25923
[23] = system: Staphylococcus aureus KCTC 3881
[24] = system: Staphylococcus epidermidis ATCC 12228

MIC [1]: 11.8 µM (≈ 20.5 µg/mL) | MIC [2]: 17.8 µM (≈ 30.7 µg/mL) | MIC [3]: 29.6 µM (≈ 51.2 µg/mL) | MIC [4]: 1.78 µM (≈ 3.07 µg/mL) | MIC [5]: 2.96 µM (≈ 5.12 µg/mL)
SMILES: CC[C@H](C)[C@H](NC(=O)[C@H](CCCN=C(N)N)NC(=O)[C@H](CCCCN)NC(=O)[C@H](Cc1ccccc1)NC(C)=O)C(=O)N[C@H](C(=O)N[C@@H](CCC(N)=O)C(=O)N[C@H](C(=O)N[C@H](C(=O)N[C@@H](CCCCN)C(=O)N[C@@H](CCCCN)C(=O)N[C@@H](Cc1ccccc1)C(=O)N[C@@H](CC(C)C)C(=O)N[C@@H](CCCN=C(N)N)C(N)=O)[C@@H](C)CC)[C@@H](C)CC)C(C)C [FKRIVQIIKKFLR]

MIC [6]: 31.2 µM (≈ 45.1 µg/mL) | MIC [7]: ≥ 125 µM | MIC [8]: ≥ 62.5 µM | MIC [9]: ≥ 125 µM | MIC [10]: 31.2 µM (≈ 45.1 µg/mL) | MIC [11]: 62.5 µM (≈ 90.3 µg/mL) | MIC [12]: 31.2 µM (≈ 45.1 µg/mL) | MIC [13]: 8 µM (≈ 11.6 µg/mL)
SMILES: CC[C@H](C)[C@H](NC(=O)CN)C(=O)N[C@@H](CC(C)C)C(=O)N[C@@H](CC(=O)O)C(=O)N[C@H](C(=O)N[C@@H](CC(C)C)C(=O)N[C@@H](CC(N)=O)C(=O)N[C@@H](CCCCN)C(=O)N[C@H](C(=O)N[C@@H](CO)C(=O)N[C@@H](CC(N)=O)C(=O)N[C@@H](CC(C)C)C(=O)N[C@@H](Cc1ccccc1)C(N)=O)C(C)C)[C@@H](C)CC [GILDILNKVSNLF]

MIC [14]: 13.6 µM (≈ 50 µg/mL) | MIC [15]: 13.6 µM (≈ 50 µg/mL) | MIC [11]: 15 µM (≈ 55.1 µg/mL) | MIC [16]: 16.3 µM (≈ 60 µg/mL) | MIC [17]: 13.6 µM (≈ 50 µg/mL) | MIC [18]: 1.7 µM (≈ 6.25 µg/mL) | MIC [19]: 27.2 µM (≈ 99.9 µg/mL) | MIC [20]: > 27.2 µM | MIC [21]: 13.6 µM (≈ 50 µg/mL) | MIC [22]: 30 µM (≈ 110 µg/mL) | MIC [23]: 6.8 µM (≈ 25 µg/mL) | MIC [24]: 13.6 µM (≈ 50 µg/mL)
SMILES: CC[C@H](C)[C@@H]1NC(=O)[C@H](CCCCN)NC(=O)[C@@H](NC(=O)[C@H](CCCCN)NC(=O)[C@H](CC(C)C)NC(=O)[C@H](CCC(N)=O)NC(=O)[C@H](CCC(=O)O)NC(=O)[C@H](CC(C)C)NC(=O)[C@H](CC(C)C)NC(=O)[C@H](CO)NC(=O)CNC(=O)CNC(=O)[C@@H](NC(=O)[C@H](CC(N)=O)NC(=O)[C@H](CCCCN)NC(=O)[C@H](C)NC(=O)[C@@H](NC(=O)[C@H](CC(N)=O)NC(=O)[C@H](CCCCN)NC(=O)CNC(=O)[C@@H](NC(=O)[C@H](C)NC(=O)[C@H](CCCCN)NC(=O)[C@H](CC(C)C)NC(=O)[C@@H](NC(=O)CNC(=O)[C@@H](NC(=O)[C@@H](NC(=O)[C@@H](NC(=O)[C@H](CO)NC(=O)[C@H](Cc2ccccc2)NC(=O)[C@H](CC(C)C)NC(=O)CN)C(C)C)C(C)C)[C@@H](C)O)C(C)C)C(C)C)C(C)C)C(C)C)CSSC[C@@H](C(=O)O)NC(=O)CNC(=O)CNC(=O)[C@H](CO)NC1=O [GLFSVVTGVLKAVGKNVAKNVGGSLLEQLKCKISGGC]
